{"source": "ChEMBL document CHEMBL1151630", "about": "“Antineoplastic agents, 103. The isolation and structure of hypoestestatins 1 and 2 from the East African Hypoëstes verticillaris” (1984)", "system": "P388", "experiment": "Cytotoxicity against mouse P388 cells", "type": "functional"}
{"compound": "COc1ccc2c3c(c4cc(OC)c(OC)cc4c2c1)[C@@H](O)[C@@H]1CCCN1C3", "note": "[HYPOESTESTATIN 2]", "values": [{"measurement": "ED50", "result": 4, "unit": "×10⁻⁵ ug/ml"}]}
